Results: patent US11976074B1, “Crystalline salts of Linsitinib” (Sling Therapeutics, Inc., priority 2023, dated 2024)
“Also recorded” adds a separate entry of the source.

Tests used:
Type in all cases: physicochemical
[1] = Equilibrium solubility in bio-relevant media (FaSSGF pH 1.6, FaSSIF pH 6.5)
Excerpt: In addition to the pH-solubility data, a comparison of the equilibrium solubility of linsitinib free base and salts in two bio-relevant media (Table 28), fasted state simulated gastric fluid (FaSSGF pH 1.6) and intestinal fluid (FaSSIF pH 6.5) was completed. […] A saturated solution of Esylate 1 was not achieved during this study and therefore the equilibrium solubility could be higher than determined. It should be noted that variability of almost a full pH unit was noted among the samples making a direct comparison more challenging.

[2] = DVS analysis (hygroscopicity) of Esylate 2
Excerpt: Esylate 2 appears to be a stable polymorph of the esylate salt of linsitinib. Esylate 2 was isolated from a wide range of techniques, solvents and temperatures, and a few samples were characterized further (Table 13). NMR analysis confirmed it to be a 1:1 linsitinib esylate salt. […] This was further supported by successful indexing of its PXRD pattern, whose calculated unit cell volume pointed to a 1:1 salt (Section 0).

[3] = 75% relative humidity stress test; conditions: 24 days, RT
Procedure: (§1) A scale-up attempt for Esylate 2 was carried out towards the relative humidity stress test and the mechanical stress test.

[4] = Mechanical stress test (neat grinding/milling); conditions: milled neat at max power for 30 minutes
Procedure: as §1

[5] = pH-solubility of linsitinib free base and selected salts (pH 1.5 to 6.5, overnight equilibration, HPLC); conditions: for solubility: overnight equilibration; for Final pH: after overnight equilibration
Procedure: The pH-solubility of selected salts (Phosphate 1, L-Malate 1, Esylate 1, and Esylate 2) was evaluated and compared with linsitinib free base. The solubility analysis was conducted in a manner consistent with a previous study that was performed with linsitinib free base. Aqueous solutions were prepared between pH 1.5 and pH 6.5 in 0.5 pH unit increments via titration of the solution using NaOH and HCl. For each salt or the free base, an attempt was made to reach saturation in each of the solutions by adding sufficient material to the solution such that excess solids remained. If saturation was achieved, the pH of the solution was measured and adjusted to the target pH and additional material was added if needed. The samples were then equilibrated overnight. The final pH of the solution was measured, the solids were filtered and selected samples were analyzed by PXRD. The concentration of linsitinib in the filtrate was quantitated by HPLC (diluted as needed). In some cases, significant drift (+1 pH unit or more) of the final pH from the target pH was observed after the overnight equilibration.
The pH-solubility data is shown graphically in FIG. 89. […] Indeed, it should be noted that in the majority of the low pH systems, higher initial dissolution/solubility was observed followed by precipitation of the material from solution upon longer equilibration.

[6] = Interconversion slurries of esylate forms; conditions: 4° C., RT, 60° C.; MEK and 2:1 EtOH:HEP
Procedure: To find the thermodynamically stable form of the mono-salt, interconversion slurries were set-up at three different temperatures in two different solvent systems between Esylates 1, 2, 3 and Esylate 4+Esylate 5 (Table 11). A sample of Esylate 4+Esylate 5 was included as part of the interconversion slurry in-spite of Esylate 4 being a solvate as Esylate 5 could not be isolated as a separate pure phase until the drying experiment was carried out on Esylate 4 towards the end of the study. Slurries were set-up at 4° C., RT and at 60° C. in MEK and 2:1 EtOH:HEP, resulting in a total of six experiments which were run for a total of 7 days.

[7] = Water activity slurries of Esylate 2 seeded with Esylate 1; conditions: for PXRD result of water activity slurry: seeded with Esylate 1
Excerpt: Water activity slurries were set-up with Esylate 2 and seeds of Esylate 1 to explore the presence of a potential hydrate and any associated critical water activity (Table 12). Four slurries were set-up in varying ratios of THF and H2O corresponding to 0.45, 0.63, 0.78 and 0.91 aw respectively.

[8] = Differential scanning calorimetry (DSC); conditions: endotherms
Procedure: DSC analysis was carried out using a TA Instruments […] Discovery Series instrument. The instrument temperature calibrations were performed using indium. The DSC cell was kept under a nitrogen purge of 50 mL per minute during the analysis. The sample was placed in a standard, crimped aluminum pan and heated from approximately 25° C. to 300° C. at a rate of 10° C. per minute

[9] = Thermogravimetric analysis (TGA); conditions: start to 83° C.
Procedure: The TG analysis was carried out using a TA Instruments […] Discovery Series instrument. The instrument balance was calibrated using class M weights and the temperature calibration was performed using alumel. The nitrogen purge was 10 mL per minute at the balance and 25 mL per minute at the furnace. The sample was placed into a pre-tared platinum pan and heated from approximately 25° C. to 300° C. at a rate of 10° C. per minute.

[10] = Heating experiments with selected malate samples
Procedure: Based on the thermal data, Malate 4 and Malate 5 were heated at […] for 15 minutes. The solids were re-analyzed by PXRD after heating to investigate any form change upon dehydration. […] While there was an insufficient amount of sample to further characterize Malate 7, based on the conditions upon which it was generated, it could be a lower hydrate or an anhydrous form.

[11] = Physical stability testing of Esylate 4 (elevated temperature vacuum drying); conditions: vacuum oven, 60° C., 18 hours
Excerpt: Esylate 4 was obtained from salt formation experiments using 1 Eq ESA at RT and ST in IPA and was further characterized using multiple techniques (Table 16).
Esylate 5 was initially only obtained in-tandem with Esylate 4 from slurries in several different solvent systems (FIG. 4). […] Due to the fact that the sample had been generated via drying at elevated temperature, the weight loss observed upon heating is likely due to surface or channel water absorbed during exposure to ambient conditions. […] Esylate 5 was not obtained from any of the interconversion slurries, indicating it is metastable under the conditions investigated (Table 18).

## CCS(=O)(=O)O.C[C@]1(O)C[C@@H](c2nc(-c3ccc4ccc(-c5ccccc5)nc4c3)c3c(N)nccn32)C1 [Esylate 2]
[1]; FaSSGF (pH 1.6)
  Final pH: 3.25
  solubility: 103.10 mg/mL
[1]; FaSSGF (pH 1.6), in words
  Solubility compared with the free base: highest solubility by a significant margin
[1]; FaSSIF (pH 6.5)
  Final pH: 3.72
  solubility: 1.62 mg/mL
[2]
  Hygroscopicity by DVS: slightly hygroscopic
  Net weight change after DVS analysis: no net weight change
  Weight gain and loss during the sorption and desorption cycles: 1%
[2]; 5-95% RH
  DVS sorption total weight gain: 5-95% RH: Total 33.1% weight gain
[2]; 35-75% RH
  DVS sorption weight gain: 35-75% RH: 12.0% weight gain
[2]; 75-35% RH
  DVS desorption weight loss: 75-35% RH: 12.3% weight loss
[2]; 75-95% RH
  DVS sorption weight gain: 75-95% RH: 16.9% weight gain
[2]; 95-5% RH
  DVS desorption total weight loss: 95-5% RH: Total 33.1% weight loss
[2]; 95-75% RH
  DVS desorption weight loss: 95-75% RH: 14.2% weight loss
[2]; above 85% RH
  Water up-take above 85% RH: ~0.8%
[2]; after sorption and desorption
  DVS net weight change: −0.04% weight loss
[3]
  PXRD result after 75% RH stress: no form change; also recorded: Esylate 2
  Weight gain by TGA after 75% RH stress: no weight gain
[4]
  PXRD result after grinding: poorly crystalline Esylate 2 along with amorphous residue
[5]; aqueous solution, pH 6, aqueous buffer, thermodynamic from solid, target pH 6.0, read-out: Solubility
  solubility: 0.7 mg/mL
[5]; between pH 3 and pH 4
  Solubility compared to the free base and other salts: highest solubility
[5]; lower pH (<3)
  Solubility compared with the free base or Phosphate 1: significantly higher solubility
[5]; target pH 1.5
  Final pH: 1.45
[5]; target pH 1.5, * = clear solution, not equilibrium value
  solubility: 106.19 mg/mL
[5]; target pH 2.0
  Final pH: 2.06
[5]; target pH 2.0, * = clear solution, not equilibrium value
  solubility: 97.33 mg/mL
[5]; target pH 2.5
  Final pH: 2.54
[5]; target pH 2.5, * = clear solution, not equilibrium value
  solubility: 71.00 mg/mL
[5]; target pH 3.0
  Final pH: 3.04
[5]; target pH 3.0, * = clear solution, not equilibrium value
  solubility: 73.90 mg/mL
[5]; target pH 3.5
  Final pH: 3.53
[5]; target pH 3.5, * = clear solution, not equilibrium value
  solubility: 38.04 mg/mL
[5]; target pH 4.0
  Final pH: 3.99
[5]; target pH 4.0, * = clear solution, not equilibrium value
  solubility: 39.56 mg/mL
[5]; target pH 4.5
  Final pH: 4.54
[5]; target pH 4.5, * = clear solution, not equilibrium value
  solubility: 18.90 mg/mL
[5]; target pH 5.0
  Final pH: 4.96
  solubility: 20.46 mg/mL
[5]; target pH 5.5
  Final pH: 5.48
[5]; target pH 6.0
  Final pH: 4.18
[5]; target pH 6.5
  Final pH: 4.34
  solubility: 0.002 mg/mL
[6]
  Relative stability of the form in interconversion slurries: most stable form
[7]; 93.1% THF in H2O, aw = 0.91, RT
  PXRD result of water activity slurry: Esylate 2
[7]; 94.7% THF in H2O, aw = 0.78, RT
  PXRD result of water activity slurry: Esylate 2
[7]; 96.2% THF in H2O, aw = 0.63, RT
  PXRD result of water activity slurry: Esylate 2
[7]; 97.6% THF in H2O, aw = 0.45, RT
  PXRD result of water activity slurry: Esylate 2
[7]; THF/H2O slurries at RT
  Critical water activity, if present: > 0.91 aw

## C[C@]1(O)C[C@@H](c2nc(-c3ccc4ccc(-c5ccccc5)nc4c3)c3c(N)nccn32)C1.O=C(O)C[C@H](O)C(=O)O [Malate 5]
[8]
  DSC Results, Endo: Endo: 109 °C
[9]
  TGA Results (weight loss): 7.4%, start to 83 °C
[10]; 92° C., 15 min
  XRPD result after heating: Malate 7 + pk
[10]; heated for 15 minutes
  Form change upon heating (PXRD): dehydrate to a new form, designated as Malate 7

## CCS(=O)(=O)O.C[C@]1(O)C[C@@H](c2nc(-c3ccc4ccc(-c5ccccc5)nc4c3)c3c(N)nccn32)C1 [Esylate 4]
[11]
  PXRD result after vacuum drying: form change into Esylate 5
[6]
  Relative stability of the form in interconversion slurries: metastable
